The values below come from ChEMBL document CHEMBL1201862, “PubChem BioAssay data set” (2004).

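A five-concentration, 48-hour dose response in 96-well plates underlies each endpoint, interpolated linearly between surrounding concentrations. The concentration for 50% growth inhibition is given as GI50.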 The source made the active and inactive calls. Cut-off read from the data, not from the text of the source: active = GI50 up to about 1.1 µM and inactive = higher.

Test systems include 786-0; CAKI-1; CCRF-CEM; HCT-15; HL-60; IGROV-1; K562; LOX IMVI; NCI-H23; NCI/ADR-RES; OVCAR-4; PC-3; RPMI-8226; SF-539; SK-MEL-28; SK-MEL-5; SR; U-251; UACC-257; UO-31.
Assay in all cases: inhibition of tumour cell growth, NCI panel, 48 h

Regarding `Cc1cc(N(CCC#N)CCC#N)ccc1/C=C1\SC(=S)NC1=O`, the GI50 in the test with 786-0 is 74.6 µM (inactive); with CAKI-1, 41.4 µM (inactive); with CCRF-CEM it was 25.9 µM (inactive); in the test on HCT-15 it was > 100 µM; with HL-60 it was 32.5 µM (inactive); with IGROV-1, 65.3 µM (inactive). Also, the GI50 with K562 was 40 µM (inactive); in the test on LOX IMVI, > 100 µM (inactive); in the test on NCI-H23, > 100 µM (inactive); with NCI/ADR-RES, > 100 µM (inactive); with OVCAR-4 it was > 100 µM (inactive); in the test on PC-3 it was 36.8 µM (inactive). Besides, the GI50 with RPMI-8226 was 17.2 µM (inactive); with SF-539, 69.5 µM (inactive); with SK-MEL-28 it was > 100 µM (inactive); in the test on SK-MEL-5, > 100 µM (inactive); with SR, 22 µM (inactive); in the test on U-251, 42.5 µM (inactive). The results for the GI50 with UACC-257 and in the test on UO-31 were > 100 µM (inactive) and 99.8 µM (inactive), respectively.
As for `CCSC(=O)N1c2ccc(OC)cc2C=CC1C#N` (stereo not given), the GI50 with 786-0 is 0.00344 µM (active); with CAKI-1 it was < 0.01 µM (active); in the test on CCRF-CEM, 0.00313 µM (active); in the test with HCT-15, 0.00734 µM; in the test on HL-60 it was 0.00347 µM (active); in the test on IGROV-1, 0.00373 µM (active). The GI50 is 0.00632 µM (active) in the test on K562; 0.00424 µM (active) with LOX IMVI; 0.00509 µM (active) in the test with NCI-H23; 0.00131 µM (active) in the test on NCI/ADR-RES; 0.308 µM (active) in the test on OVCAR-4; 0.00364 µM (active) with PC-3. In addition, the GI50 was 0.00273 µM (active) in the test with RPMI-8226; 0.00177 µM (active) with SF-539; 0.308 µM (active) in the test with SK-MEL-28; 0.00152 µM (active) in the test with SK-MEL-5; 0.000843 µM (active) in the test on SR; 0.00403 µM (active) in the test with U-251. For the same compound, the GI50 in the test on UACC-257 and in the test on UO-31 was < 0.01 µM (active) throughout.
With `COc1ccc(OC)c(C2CCc3nc4nc(N)nc(N)c4cc3C2)c1` (stereo not given), the GI50 was 2.69 µM (inactive) with 786-0; 20.8 µM (inactive) with CAKI-1; 2.96 µM (inactive) with CCRF-CEM; 14.1 µM with HCT-15; 2.64 µM (inactive) in the test on HL-60; 10.2 µM (inactive) in the test on IGROV-1. Also, the GI50 is 2.31 µM (inactive) with K562; 3.12 µM (inactive) in the test on LOX IMVI; 18.5 µM (inactive) in the test on NCI-H23; > 100 µM (inactive) with NCI/ADR-RES; 2.07 µM (inactive) with OVCAR-4; 3.56 µM (inactive) in the test on PC-3. For the same compound, the GI50 was 5.78 µM (inactive) in the test with RPMI-8226; 3.01 µM (inactive) with SF-539; 2.4 µM (inactive) in the test with SK-MEL-28; 5.05 µM (inactive) with SK-MEL-5; 2.48 µM (inactive) in the test on SR; 1.76 µM (inactive) in the test on U-251. The GI50 is 2.48 µM (inactive) in the test on UACC-257 and 3.25 µM (inactive) in the test on UO-31.
Turning to `NCCN/C(=N\c1ccccc1)Nc1ccccc1`, the GI50 is > 100 µM (inactive) in the test on 786-0; > 100 µM (inactive) in the test with CAKI-1; > 100 µM (inactive) in the test on CCRF-CEM; > 100 µM with HCT-15; > 100 µM (inactive) with HL-60; > 100 µM (inactive) in the test on IGROV-1. The GI50 in the test on K562 is > 100 µM (inactive); in the test on LOX IMVI, 83.8 µM (inactive); in the test on NCI-H23, > 100 µM (inactive); with NCI/ADR-RES it was > 100 µM (inactive); in the test with OVCAR-4, > 100 µM (inactive); with PC-3, 55.6 µM (inactive). The GI50 with RPMI-8226 was > 100 µM (inactive); in the test with SF-539 it was 70.8 µM (inactive); in the test on SK-MEL-28, > 100 µM (inactive); in the test on SK-MEL-5, 99.5 µM (inactive); in the test on SR, > 100 µM (inactive); in the test on U-251 it was > 100 µM (inactive). Further, the GI50 in the test on UACC-257 and in the test on UO-31 was > 100 µM (inactive) throughout.
